According to US9072791B2, “Photostabilized pharmaceutical compositions” (DENKI KAGAKU KOGYO KABUSHIKI KAISHA, priority 2008, dated 2015):
Values joined by “and” are separate entries in the source; they are usually repeats but may differ in a detail not shown here. Equal entries are not always repeated. Where two headings read alike, the source gives them in different places.

Columns and labels:
Format in all cases: physicochemical
[1] = Photostability test in glass vials not shielded from light: gelation, molecular weight, percent conjugation of MTX (Example 4(2))
Method: Various photostabilizers (methyl p-hydroxybenzoate (methyl paraben), salicylic acid Na, thiosulfuric acid Na, thioglycolic acid Na, N-acetyltryptophan, and tryptophan) were each dissolved in a preparation buffer (0.9% NaCl containing 2 mM phosphate buffer, pH 7.4) to give a concentration of 1 or 10 mg/ml and thereafter filtered aseptically by passage through a 0.2-μm filter (Millex GV). A powder of the HA-MTX conjugate prepared in accordance with Production 1 was metered aseptically and dissolved in the filtered, photostabilizer-containing preparation buffer to give a concentration of 10 mg/mL; the thus prepared solutions were used as test samples. To prepare a control solution, the HA-MTX conjugate was dissolved in a photostabilizer-free preparation buffer at a concentration of 10 mg/mL.
The thus prepared solutions were put into glass vials not shielded from light and then irradiated with light.
The irradiation was so performed as to give an illuminance of 4000 Lux at 25° C. from a fluorescent lamp for use in a photostability test (TOSHIBA FL20S•D-EDL-D65) by means of a photostability tester (ETAC LABONIC LA110). After the lapse of specified periods (0 h, 25 h, 50 h, 100 h, 150 h, and 300 h) of irradiation, samples were taken and not only checked for gelation but also measured for the molecular weight of the HA-MTX conjugate and the percent conjugation of MTX (in the HA-MTX conjugate).
To evaluate the degree of gelation, the surface of each sample solution was pierced with a spatula and visually checked for the formation of an interface as the result of gelation. […] The apparatus used in gel filtration chromatography was equipped with OHpackSB-806HQ (Shodex) as a column, RI-71 (Shodex) as an […], and 875-UV (JASCO, detection wavelength: 304 nm) as a UV detector and analysis was conducted under the following conditions. Eluent: 50 mM sodium phosphate aqueous solution (pH 6.0); elution rate: 0.6 mL/min; column temperature: 40° C. By the above-described gel filtration chromatography, the elution times of the conjugate of interest were determined and the molecular weight of the same conjugate was determined from the relationship between the elution times and molecular weights of standard substances. As the standard substances, hyaluronic acid samples were prepared in varying molecular weights and their accurate values were calculated by the limiting viscosity method before it was used.

[2] = Photostability test with additional light-shielding film LUMICOOL 1905 (Example 6); details: for Molecular weight (×10^4), irradiation time 0 h / Molecular weight (×10^4), irradiation time 150 h / Molecular weight (×10^4), irradiation time 300 h / Percent Conjugation (%), irradiation time 0 h / Percent Conjugation (%), irradiation time 150 h / Percent Conjugation (%), irradiation time 300 h: vial wrapped with LUMICOOL 1905;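 as to all read-outs here: molecular weight and drug conjugation percentage of the test conjugate, both determined by the method given for the first production procedure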
[3] = Fluorescing of the HA-MTX conjugate upon irradiation with light at specified wavelengths (Example 1); parameters: key: rated “+” when strong emission was observed after the irradiation; rated “−” when the emission after the irradiation was not different from the emission before the irradiation
Method: The HA-MTX conjugate obtained in Production 1 was dissolved in 0.9% NaCl containing 2 mM phosphate buffer (pH 7.3) to give a concentration of 9.9 mg/ml in terms of HA and the solution was irradiated with light at varying wavelengths (260 nm, 310 nm, 360 nm, and 405 nm) using a fluorescence detector for liquid chromatography (product of Hitachi, Ltd.; fluorescence detector of model F1050) to observe the gelation and fluorescing of the conjugate. To evaluate the gelation, the surface of the sample solution was pierced with a spatula and visually checked for the formation of an interface as the result of gelation. To observe fluorescing, the sample was irradiated with exciting light and the state of light emission from the sample was observed by direct visual checking before and after the irradiation; the result was rated “+” when strong emission was observed after the irradiation but rated “−” when the emission after the irradiation was not different from the emission before the irradiation.

[4] = Effect of photostabilizers on the excitation spectra of the HA-MTX conjugate (Example 4(1)); details: fluorescence at 458 nm
Method: Various photostabilizers (methyl p-hydroxybenzoate (methyl paraben), salicylic acid Na, thiosulfuric acid Na, and N-acetyltryptophan) were each dissolved in a preparation buffer (0.9% NaCl containing 2 mM phosphate buffer (pH 7.4)) to give a concentration of 9 mg/ml (but 0.9 mg/ml in the case of methyl paraben) and thereafter filtered aseptically by passage through a 0.2-μm filter (Millex GV). […] The test samples and the control were irradiated with light at 300-480 nm and the intensity of fluorescence at 458 nm was measured.

[5] = added at 1 mg/mL, not shielded from light
[6] = additive 1 mg/ml, 4000 Lux, 25° C., not shielded from light
[7] = additive 10 mg/ml, 4000 Lux, 25° C., not shielded from light

Molecule	suppressing drops in the molecular weight and percent conjugation [1, 5]	Molecular weight (×10^4), irradiation time 0 h [1, 6]	Molecular weight (×10^4), irradiation time 25 h [1, 6]	Molecular weight (×10^4), irradiation time 50 h [1, 6]	Molecular weight (×10^4), irradiation time 100 h [1, 6]	Molecular weight (×10^4), irradiation time 150 h [1, 6]	Molecular weight (×10^4), irradiation time 300 h [1, 6]	Percent Conjugation (%) of MTX, irradiation time 0 h [1, 6]	Percent Conjugation (%) of MTX, irradiation time 25 h [1, 6]	Percent Conjugation (%) of MTX, irradiation time 50 h [1, 6]	Percent Conjugation (%) of MTX, irradiation time 100 h [1, 6]	Percent Conjugation (%) of MTX, irradiation time 150 h [1, 6]	Percent Conjugation (%) of MTX, irradiation time 300 h [1, 6]	Molecular weight (×10^4), irradiation time 0 h ([2]; additive 1 mg/mL)	Molecular weight (×10^4), irradiation time 150 h ([2]; additive 1 mg/mL)	Molecular weight (×10^4), irradiation time 300 h ([2]; additive 1 mg/mL)	Percent Conjugation (%), irradiation time 0 h ([2]; additive 1 mg/mL)	Percent Conjugation (%), irradiation time 150 h ([2]; additive 1 mg/mL)	Percent Conjugation (%), irradiation time 300 h ([2]; additive 1 mg/mL)	Molecular weight (×10^4), irradiation time 0 h ([2]; additive 10 mg/mL)	further results
CC(=O)N[C@@H](Cc1c[nH]c2ccccc12)C(=O)O [N-acetyltryptophan]	could suppress drops in the molecular weight and percent conjugation for irradiation periods that did not exceed about 100 hours	178 ×10^4	164 ×10^4	166 ×10^4	138 ×10^4	128 ×10^4	78 ×10^4	2.2%	2.2%	2.3%	2.2%	2.1%	2.1%	178 ×10^4	172 ×10^4	136 ×10^4	2.2%	2.3%	2.2%	190 ×10^4	Molecular weight (×10^4), irradiation time 0 h [1, 7]: 190 ×10^4; Molecular weight (×10^4), irradiation time 25 h [1, 7]: 180 ×10^4; Molecular weight (×10^4), irradiation time 50 h [1, 7]: 175 ×10^4; Molecular weight (×10^4), irradiation time 100 h [1, 7]: 146 ×10^4; Molecular weight (×10^4), irradiation time 150 h [1, 7]: 135 ×10^4; Molecular weight (×10^4), irradiation time 300 h [1, 7]: 97 ×10^4; Percent Conjugation (%) of MTX, irradiation time 0 h [1, 7]: 2.2%; Percent Conjugation (%) of MTX, irradiation time 25 h [1, 7]: 2.2%; Percent Conjugation (%) of MTX, irradiation time 50 h [1, 7]: 2.2%; Percent Conjugation (%) of MTX, irradiation time 100 h [1, 7]: 1.9%; Percent Conjugation (%) of MTX, irradiation time 150 h [1, 7]: 2.1%; Percent Conjugation (%) of MTX, irradiation time 300 h [1, 7]: 2.0%; Molecular weight (×10^4), irradiation time 150 h ([2]; additive 10 mg/mL): 186 ×10^4; Molecular weight (×10^4), irradiation time 300 h ([2]; additive 10 mg/mL): 187 ×10^4; Percent Conjugation (%), irradiation time 0 h ([2]; additive 10 mg/mL): 2.2%; Percent Conjugation (%), irradiation time 150 h ([2]; additive 10 mg/mL): 2.2%; Percent Conjugation (%), irradiation time 300 h ([2]; additive 10 mg/mL): 2.2%
O=C([O-])c1ccccc1O.[Na+] [Na salicylate, sodium salicylate]														186 ×10^4	184 ×10^4	163 ×10^4	2.2%	2.1%	2.2%	185 ×10^4	Molecular weight (×10^4), irradiation time 0 h [1]: 185 ×10^4 and 186 ×10^4; Molecular weight (×10^4), irradiation time 25 h [1]: 176 ×10^4 and 172 ×10^4; Percent Conjugation (%) of MTX, irradiation time 0 h [1]: 2.2%; Percent Conjugation (%) of MTX, irradiation time 25 h [1]: 2.2%; Percent Conjugation (%) of MTX, irradiation time 50 h [1]: 2.1%; Percent Conjugation (%) of MTX, irradiation time 100 h [1]: 2.1% and 1.9%; Percent Conjugation (%) of MTX, irradiation time 150 h [1]: 2.2% and 1.8%; Percent Conjugation (%) of MTX, irradiation time 300 h [1]: 2.2% and 2.0%; suppressing drops in the molecular weight and percent conjugation [1]: considerably effective in suppressing drops in the molecular weight and percent conjugation even when the time of irradiation exceeded 100 hours; Molecular weight (×10^4), irradiation time 150 h ([2]; additive 10 mg/mL): 190 ×10^4; Molecular weight (×10^4), irradiation time 300 h ([2]; additive 10 mg/mL): 179 ×10^4; Percent Conjugation (%), irradiation time 0 h ([2]; additive 10 mg/mL): 2.2%; Percent Conjugation (%), irradiation time 150 h ([2]; additive 10 mg/mL): 2.2%; Percent Conjugation (%), irradiation time 300 h ([2]; additive 10 mg/mL): 2.1%; stabilizing effects (suppressing effects on the drop in molecular weight and the drop in percent conjugation of MTX) ([2]; with light-shielding film LUMICOOL 1905): comparable to those obtained in the case where complete shielding of light was ensured by aluminum foil
COC(=O)c1ccc(O)cc1 [Methyl paraben, methyl p-hydroxybenzoate]	could suppress drops in the molecular weight and percent conjugation for irradiation periods that did not exceed about 100 hours	187 ×10^4	155 ×10^4	127 ×10^4	107 ×10^4	126 ×10^4	65 ×10^4	2.2%	2.0%	2.1%	2.0%	2.1%	1.9%	187 ×10^4	184 ×10^4	179 ×10^4	2.2%	2.2%	2.2%		stabilizing effects (suppressing effects on the drop in molecular weight and the drop in percent conjugation of MTX) [2]: comparable to those obtained in the case where complete shielding of light was ensured by aluminum foil
MTX-α-PhePhe-NHC2H4NH-HA [HA-MTX conjugate]																					Fluorescence ([3]; irradiation at 260 nm): −; Fluorescence ([3]; irradiation at 310 nm): −; Fluorescence ([3]; irradiation at 360 nm): +; Fluorescence ([3]; irradiation at 405 nm): +; main excitation wavelengths ([4]; control solution 1 mg/ml, no photostabilizer): 320-430 nm; excitation maximum wavelength (Ex λmax) [4]: 380 nm
